# Measured values from patent US20060069132A1, “Azolecarboxamide herbicides” (priority 2004, published 2006).
# Assays:
# large crabgrass = test: Test A pre-/postemergence herbicide test; format: in vivo, Digitaria sanguinalis; conditions: for Plant response rating, Crabgrass, Large: Postemergence; for Crabgrass, Large plant response rating: Preemergence
# In short: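 Visual injury scores on a 0–100 scale (100 = complete control) taken about ten days post-treatment in greenhouse against untreated controls; dash means no result. Treatments: preemergence soil spray and postemergence spray to runoff on one- to two-leaf plants 2 to 10 cm tall, surfactant-containing formulation.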
# rice = test: Test B pre-/postemergence herbicide test; format: in vivo, Oryza sativa; conditions: preemergence, 125 g ai/ha; 0 to 100 scale, 0 is no effect, 100 is complete control
# In short: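 Visual rating, 0 (no effect) to 100 (complete control), versus untreated controls after 13–15 d in greenhouse. Pre- and postemergence applications (postemergence plants 2–18 cm, 1–4 leaves); flooded paddy arm at 2-leaf stage. Compounds in non-phytotoxic solvent plus surfactant.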
# woolly cupgrass = test: Test C pre-/postemergence herbicide test; format: in vivo, Eriochloa villosa
# In short: (§1)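 Visual ratings on a 0–100 scale (100 = complete control) made versus untreated controls after 12 to 14 greenhouse days. Test chemicals, formulated in surfactant-containing non-phytotoxic solvent, applied preemergence to planted seeds or postemergence to 1- to 4-leaf plants (2 to 18 cm).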
# giant foxtail = test: Test C pre-/postemergence herbicide test; format: in vivo, Setaria faberi
# In short: as §1
# kochia = test: Test C pre-/postemergence herbicide test; format: in vivo, Kochia scoparia
# In short: as §1
# morningglory = test: Test C pre-/postemergence herbicide test; format: in vivo, Ipomoea coccinea; design: key to Plant response rating, Morningglory: 0 = no effect, 100 = complete control
# In short: as §1
# eastern black nightshade = test: Test C pre-/postemergence herbicide test; format: in vivo, Solanum ptycanthum; conditions: preemergence
# In short: as §1
# pigweed = test: Test C pre-/postemergence herbicide test; format: in vivo, Amaranthus retroflexus
# In short: as §1
# [1] = test system: common (oilseed) sunflower; test: Test C pre-/postemergence herbicide test; format: in vivo, Helianthus annuus; conditions: preemergence
# In short: as §1
# [2] = 2000 g ai/ha, 0 to 100 scale, 0 no effect, 100 complete control
# [3] = 31 g ai/ha, preemergence, scale 0 to 100
# [4] = 125 g ai/ha, scale 0 (no effect) to 100 (complete control), visual, 12 to 14 days, preemergence
# [5] = 250 g ai/ha, scale 0 to 100 (0 no effect, 100 complete control), visual, 12 to 14 days, preemergence
# [6] = Postemergence, 250 g ai/ha, scale 0 to 100, 0 no effect, 100 complete control
# [7] = postemergence, 125 g ai/ha, scale 0 to 100
# [8] = postemergence, 62 g ai/ha, scale 0 to 100
# [9] = 125 g ai/ha, scale 0 (no effect) to 100 (complete control), visual, 12 to 14 days
# [10] = 250 g ai/ha, scale 0 to 100 (0 no effect, 100 complete control), visual, 12 to 14 days
smiles,measurement,setting,value
CCn1nc(C(C)(C)C)cc1C(=O)Nc1ccc(F)c(C(=O)NCCF)c1 [Compound 60],"Plant response rating, Crabgrass, Large","large crabgrass; 500 g ai/ha, 0 to 100 scale, 0 no effect, 100 complete control",20
same,"Plant response rating, Crabgrass, Large",large crabgrass; [2],55
same,"Crabgrass, Large plant response rating","large crabgrass; 500 g ai/ha, visual rating, 0 to 100 scale (0 no effect, 100 complete control)",75
same,"Crabgrass, Large plant response rating",large crabgrass; [2],95
same,"Plant response rating, Rice",rice,30
same,"Plant response rating, Cupgrass, Woolly",woolly cupgrass; [3],0
same,"Plant response rating (0 = no effect, 100 = complete control), Cupgrass, Woolly","woolly cupgrass; 62 g ai/ha, preemergence",0
same,"Plant response rating, Cupgrass, Woolly",woolly cupgrass; [4],10
same,"Plant response rating, Cupgrass, Woolly",woolly cupgrass; [5],70
same,"Plant response rating, Cupgrass, Woolly",woolly cupgrass; [6],5
same,"Plant response rating, Cupgrass, Woolly",woolly cupgrass; [7],5
same,"Plant response rating, Cupgrass, Woolly",woolly cupgrass; [8],0
same,"Plant response rating, Foxtail, Giant",giant foxtail; [3],0
same,"Plant response rating (0 = no effect, 100 = complete control), Foxtail, Giant","giant foxtail; 62 g ai/ha, preemergence",0
same,"Plant response rating, Foxtail, Giant",giant foxtail; [4],15
same,"Plant response rating, Foxtail, Giant",giant foxtail; [5],80
same,"Plant response rating, Foxtail, Giant",giant foxtail; [6],5
same,"Plant response rating, Foxtail, Giant",giant foxtail; [7],5
same,"Plant response rating, Foxtail, Giant",giant foxtail; [8],0
same,"Plant response rating, Kochia",kochia; [3],80
same,"Plant response rating (0 = no effect, 100 = complete control), Kochia","kochia; 62 g ai/ha, preemergence",80
same,"Plant response rating, Kochia",kochia; [4],90
same,"Plant response rating, Kochia",kochia; [5],90
same,"Plant response rating, Kochia",kochia; [6],20
same,"Plant response rating, Kochia",kochia; [7],20
same,"Plant response rating, Kochia",kochia; [8],10
same,"Plant response rating, Morningglory",morningglory; [3],0
same,"Plant response rating (0 = no effect, 100 = complete control), Morningglory","morningglory; 62 g ai/ha, preemergence",0
same,"Plant response rating, Morningglory",morningglory; [4],5
same,"Plant response rating, Morningglory",morningglory; [5],10
same,"Plant response rating, Morningglory",morningglory; [6],10
same,"Plant response rating, Morningglory",morningglory; [7],10
same,"Plant response rating, Morningglory",morningglory; [8],10
same,"Plant response rating, Nightshade","eastern black nightshade; 31 g ai/ha, scale 0 to 100",10
same,"Plant response rating (0 = no effect, 100 = complete control), Nightshade",eastern black nightshade; 62 g ai/ha,30
same,"Plant response rating, Nightshade",eastern black nightshade; [9],90
same,"Plant response rating, Nightshade",eastern black nightshade; [10],90
same,"Plant response rating, Pigweed",pigweed; [3],100
same,"Plant response rating (0 = no effect, 100 = complete control), Pigweed","pigweed; 62 g ai/ha, preemergence",100
same,"Plant response rating, Pigweed",pigweed; [4],100
same,"Plant response rating, Pigweed",pigweed; [5],100
same,"Plant response rating, Pigweed",pigweed; [6],60
same,"Plant response rating, Pigweed",pigweed; [7],40
same,"Plant response rating, Pigweed",pigweed; [8],40
same,"Plant response rating, Sunflower","[1]; 31 g ai/ha, scale 0 to 100",0
same,"Plant response rating (0 = no effect, 100 = complete control), Sunflower",[1]; 62 g ai/ha,0
same,"Plant response rating, Sunflower",[1]; [9],0
same,"Plant response rating, Sunflower",[1]; [10],0
